By IC50 is commonly meant the concentration needed to halve the response being measured.

Bounds are passed on as bounds.

The test system of one experiment is MDA-MB-435. The experiment can be described thus: Cytotoxicity against human MDA-MB-435 cells assessed as cell viability at 10 uM incubated for 48 hrs by sulforhodamine B assay relative to control. In kind it is functional. Particulars: read-out: Activity.
A further experiment deals with T47D. The experiment can be described thus: Cytotoxicity against human T47D cells assessed as cell viability at 10 uM incubated for 48 hrs by sulforhodamine B assay relative to control. The note with it: read-out: Activity. It counts as functional. A general note: Sulforhodamine B stains cellular protein and so reports cell mass.
Another experiment deals with NCI-H460. The experiment can be described thus: Cytotoxicity against human NCI-H460 cells assessed as cell viability at 10 uM incubated for 48 hrs by sulforhodamine B assay relative to control. In kind it is functional. Particulars: read-out: Activity.
The subject of the next experiment is KM12. The experiment can be described thus: Cytotoxicity against human KM12 cells assessed as cell viability at 10 uM incubated for 48 hrs by sulforhodamine B assay relative to control. It counts as functional. The note with it: read-out: Activity.
Another experiment concerns SK-OV-3. The experiment can be described thus: Cytotoxicity against human SK-OV-3 cells assessed as cell viability at 10 uM incubated for 48 hrs by sulforhodamine B assay relative to control. In kind it is functional. Particulars: read-out: Activity.
For another experiment, the system named is CCRF-CEM. The experiment can be described thus: Cytotoxicity against human CCRF-CEM cells assessed as cell viability at 10 uM incubated for 48 hrs by sulforhodamine B assay relative to control. In kind it is functional. Particulars: read-out: Activity.
Another experiment deals with A-375. The experiment can be described thus: Cytotoxicity against human A-375 cells assessed as reduction in cell viability by MTT assay. It counts as functional, cell-based. For orientation: Formazan colour is commonly taken as a measure of viable cells.
The subject of a further experiment is EKVX. The experiment can be described thus: Cytotoxicity against human EKVX cells assessed as cell viability at 10 uM incubated for 48 hrs by sulforhodamine B assay relative to control. It counts as functional. The note with it: read-out: Activity.
For a further experiment, the system named is UACC-62. The experiment can be described thus: Cytotoxicity against human UACC-62 cells assessed as cell viability at 10 uM incubated for 48 hrs by sulforhodamine B assay relative to control. Particulars: read-out: Activity. It counts as functional.
The subject of another experiment is K562. The experiment can be described thus: Cytotoxicity against human K562 cells assessed as cell viability at 10 uM incubated for 48 hrs by sulforhodamine B assay relative to control. In kind it is functional. Particulars: read-out: Activity.
Another experiment concerns NCI-H522. The experiment can be described thus: Cytotoxicity against human NCI-H522 cells assessed as cell viability at 10 uM incubated for 48 hrs by sulforhodamine B assay relative to control. It counts as functional. Particulars: read-out: Activity.
The subject of a further experiment is SK-MEL-28. The experiment can be described thus: Cytotoxicity against human SK-MEL-28 cells assessed as reduction in cell viability by MTT assay. It counts as functional, cell-based.
The test system of the next experiment is NCI/ADR-RES. The experiment can be described thus: Cytotoxicity against human NCI/ADR-RES cells assessed as cell viability at 10 uM incubated for 48 hrs by sulforhodamine B assay relative to control. Particulars: read-out: Activity. In kind it is functional.
The next experiment concerns MDA-MB-468. The experiment can be described thus: Cytotoxicity against human MDA-MB-468 cells assessed as cell viability at 10 uM incubated for 48 hrs by sulforhodamine B assay relative to control. Particulars: read-out: Activity. It counts as functional.
For the next experiment, the system named is SF-268. The experiment can be described thus: Cytotoxicity against human SF-268 cells assessed as cell viability at 10 uM incubated for 48 hrs by sulforhodamine B assay relative to control. In kind it is functional. The note with it: read-out: Activity.
In the next experiment the test system is Malme-3M. The experiment can be described thus: Cytotoxicity against human Malme-3M cells assessed as cell viability at 10 uM incubated for 48 hrs by sulforhodamine B assay relative to control. It counts as functional. The note with it: read-out: Activity.
The test system of another experiment is BT-549. The experiment can be described thus: Cytotoxicity against human BT-549 cells assessed as cell viability at 10 uM incubated for 48 hrs by sulforhodamine B assay relative to control. It counts as functional. Particulars: read-out: Activity.
Another experiment deals with OVCAR-4. The experiment can be described thus: Cytotoxicity against human OVCAR-4 cells assessed as cell viability at 10 uM incubated for 48 hrs by sulforhodamine B assay relative to control. It counts as functional. The note with it: read-out: Activity.
In the next experiment the test system is HL-60(TB). The experiment can be described thus: Cytotoxicity against human HL-60(TB) cells assessed as cell viability at 10 uM incubated for 48 hrs by sulforhodamine B assay relative to control. Particulars: read-out: Activity. It counts as functional.
A further experiment has as its system SW-620. The experiment can be described thus: Cytotoxicity against human SW-620 cells assessed as cell viability at 10 uM incubated for 48 hrs by sulforhodamine B assay relative to control. In kind it is functional. Particulars: read-out: Activity.

For the compound `O=C(NCCNc1nccc(-c2c(-c3cccc(F)c3)nc3sccn23)n1)c1ccc(C(F)(F)F)cc1`, the viability at 10 µM in the experiment with MDA-MB-435 worked out at 47.7%; in the experiment with T47D it was 43%; with NCI-H460 it was 73.2%; in the experiment with KM12, 75.1%; in the experiment on SK-OV-3 it was 70.2%; in the experiment with CCRF-CEM it was 53.5%. For the same compound, the viability at 10 µM in the experiment on EKVX was 69.1%; with UACC-62, 26.4%; in the experiment with K562 it was 61.8%; in the experiment with NCI-H522, 65.7%; with NCI/ADR-RES, 73.1%; in the experiment on MDA-MB-468, 77.6%. Besides, the viability at 10 µM with SF-268 was found to be 64.9%; in the experiment with Malme-3M, 55.7%; in the experiment with BT-549 it was 78.9%; in the experiment on OVCAR-4, 81.8%; with HL-60(TB), 103%; with SW-620, 79%. Also, the IC50 in the experiment with A-375 was 8.71 µM; in the experiment on SK-MEL-28, 9.26 µM.
Regarding `O=S(=O)(NCCNc1nccc(-c2c(-c3cccc(F)c3)nc3sccn23)n1)c1cccc2ccccc12`, the viability at 10 µM was 87.7% in the experiment on MDA-MB-435; 81.7% in the experiment on T47D; 97.7% in the experiment with NCI-H460; 85% in the experiment with KM12; 98.5% in the experiment with SK-OV-3; 93.9% in the experiment on CCRF-CEM. The viability at 10 µM in the experiment on EKVX was found to be 93.9%; in the experiment on UACC-62 it was 91.8%; with K562, 78.3%; in the experiment on NCI-H522, 95.5%; with NCI/ADR-RES, 97.3%; in the experiment on MDA-MB-468, 86.1%. Also, the viability at 10 µM in the experiment with SF-268 turned out to be 85.6%; with Malme-3M it was 118%; in the experiment with BT-549, 104%; in the experiment with OVCAR-4, 105%; with HL-60(TB), 116%; with SW-620, 115%.
Consider `O=S(=O)(NCCNc1nccc(-c2c(-c3cccc(F)c3)nc3sccn23)n1)c1ccc(Br)cc1`, for which the viability at 10 µM was found to be 21.3% in the experiment with MDA-MB-435; 30.5% in the experiment with T47D; 27.8% with NCI-H460; 42.5% in the experiment with KM12; 77.3% in the experiment with SK-OV-3; 51% in the experiment on CCRF-CEM. Besides, the viability at 10 µM in the experiment on EKVX was found to be 59.5%; in the experiment on UACC-62, 35.8%; in the experiment on K562 it was 38.7%; in the experiment with NCI-H522, 62.6%; in the experiment on NCI/ADR-RES, 61.8%; in the experiment on MDA-MB-468, 78.3%. For the same compound, the viability at 10 µM in the experiment with SF-268 was found to be 53%; with Malme-3M it was 71.1%; in the experiment on BT-549, 63.2%; in the experiment with OVCAR-4, 47%; with HL-60(TB) it was 90.5%; with SW-620, 54.8%. The IC50 with A-375 and in the experiment with SK-MEL-28 was 13.5 µM each time.
For `O=S(=O)(NCCCNc1nccc(-c2c(-c3cccc(F)c3)nc3sccn23)n1)c1cccc(F)c1`, the viability at 10 µM in the experiment on MDA-MB-435 was 24%; in the experiment with T47D it was -2.25%; in the experiment with NCI-H460, 58.3%; in the experiment on KM12 it was 29.9%; in the experiment with SK-OV-3, 66%; with CCRF-CEM it was 24.7%. For the same compound, the viability at 10 µM in the experiment with EKVX is 52.4%; in the experiment with UACC-62, 6.36%; with K562, 20.1%; with NCI-H522 it was 21.9%; in the experiment with NCI/ADR-RES it was 17.6%; with MDA-MB-468 it was 33%. The viability at 10 µM came out at 55.6% with SF-268; 63.2% in the experiment with Malme-3M; 33.2% with BT-549; 26.8% in the experiment on OVCAR-4; 40.5% in the experiment on HL-60(TB); 76.7% in the experiment with SW-620. In addition, the IC50 in the experiment on A-375 was 13.7 µM; with SK-MEL-28, 8.55 µM.
Take `O=C(NCCCNc1nccc(-c2c(-c3cccc(F)c3)nc3sccn23)n1)c1ccc(F)cc1`: the viability at 10 µM with MDA-MB-435 is 72.6%; in the experiment on T47D, 50.6%; in the experiment with NCI-H460, 95.2%; with KM12 it was 89%; in the experiment with SK-OV-3, 66.3%; in the experiment with CCRF-CEM, 75.9%. Further, the viability at 10 µM with EKVX worked out at 82%; in the experiment with UACC-62, 67.8%; with K562, 75.7%; in the experiment with NCI-H522 it was 85.2%; with NCI/ADR-RES it was 78.8%; in the experiment on MDA-MB-468, 59.2%. In addition, the viability at 10 µM came out at 71% with SF-268; 140% in the experiment on Malme-3M; 85.2% in the experiment on BT-549; 81.6% in the experiment with OVCAR-4; 110% with HL-60(TB); 115% with SW-620. Further, the figures for the IC50 in the experiment with A-375 and in the experiment with SK-MEL-28 were 14.9 µM and > 20 µM, respectively.
